Read-outs that look alike come from different tables or passages of the source.
Columns and labels:
Intrinsic factor [1] = molecular target: T1, Intrinsic factor (Homo sapiens, UniProt P27352); conditions: general statement in description; read-out: IF binding affinity (Kd); cited from earlier work
T1 construct: purchased Xeragenx LLC XGX-003; host or cells: Arabidopsis (transgenic plant)

Intrinsic factor [2] = molecular target: T1, Intrinsic factor; experiment: IF binding, chase experiment with 57Co radiolabeled B12; conditions: read-out: binding affinity to IF
From the text: Peptides were purchased through CSBio (Menlo Park, Calif.) and all materials were purchased through Sigma-Aldrich unless stated otherwise. Apo-IF was supplied by Xeragenx LLC (cat no: XGX-003). […] IF used in these assays was produced in the plant Arabidopsis in the apo-form and of high purity

T1 sequence (P27352 19-417): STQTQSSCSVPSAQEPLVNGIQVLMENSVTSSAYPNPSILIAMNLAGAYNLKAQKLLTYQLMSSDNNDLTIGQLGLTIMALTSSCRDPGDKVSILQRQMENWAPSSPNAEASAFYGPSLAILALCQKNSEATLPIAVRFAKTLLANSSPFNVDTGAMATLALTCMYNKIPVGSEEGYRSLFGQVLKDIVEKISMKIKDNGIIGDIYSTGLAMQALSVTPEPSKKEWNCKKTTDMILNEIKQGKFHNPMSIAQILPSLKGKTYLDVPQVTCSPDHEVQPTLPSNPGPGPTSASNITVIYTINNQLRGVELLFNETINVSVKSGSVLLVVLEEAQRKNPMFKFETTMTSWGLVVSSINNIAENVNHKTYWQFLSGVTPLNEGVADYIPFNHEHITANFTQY

Kd (Intrinsic factor [2]): 0.12 nM
Substance: cyanocobalamin [Compound B12]
Kd (Intrinsic factor [1]): ~0.001 nM
